According to patent publication US20240018158A1, “BRM TARGETING COMPOUNDS AND ASSOCIATED METHODS OF USE” (Prelude Therapeutics Incorporated, priority 2020, published 2024):

Assays:
[1] = target: bromo domain of SMARCA4 protein (Homo sapiens (Human), UniProt P40337+P51532); assay: SMARCA4 bromodomain ternary binding TR-FRET assay (with VCB); conditions: with saturating VCB (5 μM); read-out: IC50 (SM4_T) ternary binding potency in SMARCA4 FRET assay
Description: Recombinant bromo domain of SMARCA4 protein, was purchased from Active Motif (31401). The inhibitory activity of compounds was evaluated in vitro using TR-FRET assay with white 384-well low volume microplate (PerkinElmer ProxiPlate Plus), in which the compound competes the same binding site with the ligand, and thus lead to dose-dependent TR-FRET signal reduction. The cooperativity of the compounds for ternary complex formation with E3 ligase was evaluated in the absence or presence of saturating concentrations of VCB. Testing compounds were dissolved in DMSO at 10 mM and tested in 9-point IC50 mode. The assay mixture was prepared by mixing SMARCA4 (20 nM final), biotinylated probe (25 nM final), and assay buffer or VCB (5 μM) in 1×AlphaLISA Epigenetics Buffer (PerkinElmer AL008F) with 1 mM TCEP. The compounds of interest in DMSO were added to each well in 3-fold serial dilution by dispenser (TECAN D300E). and incubate for 20 minutes at room temperature before addition of detection reagents, Lance Eu W1024 anti-6×His (0.6 nM final, PerkinElmer AD0110) and Streptavidin Surelight APC (6 nM final, PerkinElmer CR130-100). The plate was then sealed and further incubated at 4° C. overnight in dark, and then was read by Envision multimode plate reader (PerkinElmer, 2102-0010). The ratio of florescence signal at 665/620 was used in data analysis. Percentage inhibition was calculated by % inhibition=100×(FDMSO-F)/(FDMSO-FPC), in which FDMSO is DMSO control, and FPC is positive control. IC50 values were determined from dose response curve by fitting the percent inhibition against compound concentration using GraphPad Prism software.

[2] = target: T1, SMARCA2 (Homo sapiens (Human), UniProt P51531); assay: In Cell Western SMARCA2 degradation in NCIH520 cells; format: cell-based; conditions: for DC50: read-out: DC50 (SM2_H520) SMARCA2 degradation potency
T1 sequence (P51531 whole entry): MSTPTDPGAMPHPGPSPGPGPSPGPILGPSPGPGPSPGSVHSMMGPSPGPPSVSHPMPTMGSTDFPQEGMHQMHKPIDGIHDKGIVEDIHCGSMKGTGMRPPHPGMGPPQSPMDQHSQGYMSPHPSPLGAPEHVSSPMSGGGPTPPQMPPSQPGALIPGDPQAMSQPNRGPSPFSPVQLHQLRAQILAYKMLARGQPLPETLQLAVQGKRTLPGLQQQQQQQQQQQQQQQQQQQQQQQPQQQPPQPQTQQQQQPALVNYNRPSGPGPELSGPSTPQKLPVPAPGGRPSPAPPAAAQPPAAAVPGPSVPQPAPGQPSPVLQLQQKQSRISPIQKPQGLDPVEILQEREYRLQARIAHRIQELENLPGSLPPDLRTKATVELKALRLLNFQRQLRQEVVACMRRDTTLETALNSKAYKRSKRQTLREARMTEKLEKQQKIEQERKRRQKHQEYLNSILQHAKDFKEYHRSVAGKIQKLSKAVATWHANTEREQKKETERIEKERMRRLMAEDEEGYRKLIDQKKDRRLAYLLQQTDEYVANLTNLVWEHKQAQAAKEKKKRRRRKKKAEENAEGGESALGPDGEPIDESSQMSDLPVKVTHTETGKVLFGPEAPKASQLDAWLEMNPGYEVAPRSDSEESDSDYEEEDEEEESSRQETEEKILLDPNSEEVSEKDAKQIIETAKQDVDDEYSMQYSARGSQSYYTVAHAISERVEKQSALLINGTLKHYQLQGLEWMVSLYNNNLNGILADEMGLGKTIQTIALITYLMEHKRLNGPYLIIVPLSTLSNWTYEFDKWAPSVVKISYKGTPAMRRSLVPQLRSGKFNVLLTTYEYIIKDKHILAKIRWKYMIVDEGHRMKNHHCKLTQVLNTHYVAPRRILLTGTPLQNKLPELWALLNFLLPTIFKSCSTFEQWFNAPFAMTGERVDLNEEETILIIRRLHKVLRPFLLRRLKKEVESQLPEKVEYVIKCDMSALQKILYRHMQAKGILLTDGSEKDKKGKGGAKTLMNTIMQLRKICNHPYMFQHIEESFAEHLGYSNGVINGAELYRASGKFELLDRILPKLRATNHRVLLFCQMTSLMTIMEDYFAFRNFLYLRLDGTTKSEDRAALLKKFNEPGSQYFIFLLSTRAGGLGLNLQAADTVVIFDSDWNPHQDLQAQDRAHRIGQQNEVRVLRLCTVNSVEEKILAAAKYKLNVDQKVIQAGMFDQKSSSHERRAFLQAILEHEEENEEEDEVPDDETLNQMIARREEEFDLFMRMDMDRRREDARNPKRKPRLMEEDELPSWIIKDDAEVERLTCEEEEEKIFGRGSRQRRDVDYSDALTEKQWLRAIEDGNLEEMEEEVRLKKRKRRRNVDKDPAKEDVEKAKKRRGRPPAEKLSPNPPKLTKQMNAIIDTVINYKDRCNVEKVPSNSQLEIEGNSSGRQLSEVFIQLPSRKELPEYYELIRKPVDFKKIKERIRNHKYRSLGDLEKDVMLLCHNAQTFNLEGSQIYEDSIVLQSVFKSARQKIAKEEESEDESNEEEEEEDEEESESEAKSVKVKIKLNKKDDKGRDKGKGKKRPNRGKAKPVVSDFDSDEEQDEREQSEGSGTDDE
Description: (§1) Compound titration and cell culture: Compounds were dissolved in DMSO to make 10 mM stock and 3-fold series dilutions were further conducted keeping the highest concentration 10 μM. NCIH1693 and NCIH520 cells were maintained in PRMI 1640 medium (Corning Cellgro, Catalog #:10-040-CV) supplemented with 10% v/v FBS (GE Healthcare, Catalog #: SH30910.03) by splitting 1:3 twice a week.
(§2) To determine SMACRA2 and SMARCA4 protein degradation DC50 values in NCIH1693 and NCIH520 cells by In Cell Western (ICW) analysis. Cells were trypsinized and 30 thousand cells/well were seeded into 384-well plates and were allowed to grow for 5 hours at 37° C. Eight-point, 3-fold serial dilutions of compounds from 10 mM stocks were added to the cells (using digital Dispenser D300-Tecan, keeping highest concentration 10 μM and normalizing with DMSO at the highest dispensed volume). Plates were incubated at 37° C. for overnight (maximum 18 hours). Cells incubated with DMSO was used as a vehicle control.
(§3) To perform In Cell Western, medium was removed from all the wells leaving cells attached to the surface. After removing the medium, cells were fixed within the plates with 40 μL of 4% formaldehyde by incubating at room temperature for 30 minutes, and then permeabilized with wash buffer (1×PBS with 0.1% Triton X-100) by washing the plate 5 times with 50 μL/well. Before labeling with primary antibodies, cells were blocked with 30 μL/well of blocking buffer (Licor Odyssey blocking buffer PBS #927-40000) for 30 minutes at room temperature. To measure SMARCA2 or SMARCA4 proteins, cells were labeled with 20 μL/well of anti SMARCA2 or SMACRA4 antibodies (Cell Signaling BRM #11966S 1:1000, Cell Signaling BRG #49360S 1:1000) diluted in Li-Cor Odyssey blocking buffer-PBS #927-40000, followed by overnight incubation at 4° C.
(§4) The next day, plates were washed 5×5 minutes with 50 μL/well of washing buffer to remove all the excess primary antibody and then 20 μL from a mixture of secondary antibody and fluorescent DNA specific dye (Goat anti rabbit 1:500 IRDye-800CW #92632211, and DRAQ5™ 1:2000-#ab108410) was added to each well. Plates were incubated for 1 hour at room temperature with gentle rocking. Cells were washed 5 times with 50 μL/well wash buffer, followed by one last wash with DI water, followed by 10 mins drying at 37° C. oven before scanning. Plates were scanned using Li-Cor Odyssey CLx imaging system to acquire integrated intensities at 700 nm and 800 nm. SMARCA signals were normalized to total cell count and then these normalized values were used to calculate the percent degradation relative to DMSO control and maximum inhibition. DC50s were calculated by using the GraphPad Prism4 program based on sigmoidal dose response equation ([Inhibitor] vs. normalized response−Variable slope).

[3] = target: SMARCA4 (Homo sapiens (Human), UniProt P51532); assay: In Cell Western SMARCA4 degradation in NCIH520 cells; format: cell-based; conditions: for DC50: read-out: DC50 (SM4_H520) SMARCA4 degradation potency
Sequence of SMARCA4 (P51532 whole entry): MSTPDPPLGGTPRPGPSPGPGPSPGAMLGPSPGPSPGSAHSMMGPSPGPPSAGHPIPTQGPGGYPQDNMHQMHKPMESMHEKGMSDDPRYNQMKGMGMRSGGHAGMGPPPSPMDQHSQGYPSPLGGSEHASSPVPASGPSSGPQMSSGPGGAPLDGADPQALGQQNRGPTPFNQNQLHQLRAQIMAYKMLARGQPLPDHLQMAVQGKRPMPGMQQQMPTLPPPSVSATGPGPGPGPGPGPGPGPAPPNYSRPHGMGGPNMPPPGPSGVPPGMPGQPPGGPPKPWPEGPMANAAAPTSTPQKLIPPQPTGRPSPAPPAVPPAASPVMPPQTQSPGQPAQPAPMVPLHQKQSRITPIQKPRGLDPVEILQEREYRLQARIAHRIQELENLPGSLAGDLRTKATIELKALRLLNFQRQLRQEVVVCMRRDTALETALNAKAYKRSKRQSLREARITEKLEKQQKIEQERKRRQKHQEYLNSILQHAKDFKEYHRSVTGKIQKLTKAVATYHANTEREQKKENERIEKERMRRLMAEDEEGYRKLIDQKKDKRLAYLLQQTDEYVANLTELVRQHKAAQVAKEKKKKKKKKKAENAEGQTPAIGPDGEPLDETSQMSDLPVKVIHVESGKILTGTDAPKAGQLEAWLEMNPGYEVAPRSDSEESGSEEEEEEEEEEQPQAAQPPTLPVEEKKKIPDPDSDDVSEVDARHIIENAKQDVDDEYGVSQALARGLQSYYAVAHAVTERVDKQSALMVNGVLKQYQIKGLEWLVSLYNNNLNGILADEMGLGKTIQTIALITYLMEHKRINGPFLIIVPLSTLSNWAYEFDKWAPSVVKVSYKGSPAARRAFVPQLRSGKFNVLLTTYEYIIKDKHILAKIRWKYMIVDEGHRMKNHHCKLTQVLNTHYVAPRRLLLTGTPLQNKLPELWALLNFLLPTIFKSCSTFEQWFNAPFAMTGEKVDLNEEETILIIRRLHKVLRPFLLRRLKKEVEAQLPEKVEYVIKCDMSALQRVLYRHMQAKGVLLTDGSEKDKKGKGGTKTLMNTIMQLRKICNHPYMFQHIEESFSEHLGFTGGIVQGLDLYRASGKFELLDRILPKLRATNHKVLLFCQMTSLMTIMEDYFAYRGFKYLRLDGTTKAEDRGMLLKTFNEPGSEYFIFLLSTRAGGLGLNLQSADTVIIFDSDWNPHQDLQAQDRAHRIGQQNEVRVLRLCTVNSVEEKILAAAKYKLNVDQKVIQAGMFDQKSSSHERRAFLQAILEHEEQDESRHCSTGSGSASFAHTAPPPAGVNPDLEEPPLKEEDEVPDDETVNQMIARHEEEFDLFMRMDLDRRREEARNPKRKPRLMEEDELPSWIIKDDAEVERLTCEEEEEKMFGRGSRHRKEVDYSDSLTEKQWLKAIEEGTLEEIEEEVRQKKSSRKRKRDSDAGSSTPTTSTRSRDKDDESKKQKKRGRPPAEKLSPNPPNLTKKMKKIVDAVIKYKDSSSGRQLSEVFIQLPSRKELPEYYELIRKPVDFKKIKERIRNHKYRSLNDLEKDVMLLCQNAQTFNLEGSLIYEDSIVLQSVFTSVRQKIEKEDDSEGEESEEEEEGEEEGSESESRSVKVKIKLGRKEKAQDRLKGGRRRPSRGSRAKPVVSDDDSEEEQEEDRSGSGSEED
Description: as §1, §2, §3, §4

[4] = target: T1, SMARCA2; assay: In Cell Western SMARCA2 degradation in NCIH1693 cells; format: cell-based; conditions: for DC50: read-out: DC50 (SM2_H1693) SMARCA2 degradation potency; for Dmax: NCI-H1693, overnight, read-out: Dmax % (SM2_H1693) maximum SMARCA2 degradation within the concentrations tested
Description: as §1, §2, §3, §4

[5] = test system: NCIH1693 cells; assay: Cell proliferation assay (ATPlite) in NCIH1693 cells; format: cell-based; conditions: H1693 cells, day 4; read-out: IC50 (PRO_H1693) antiproliferation potency
Description: One thousand NCIH1693 or NCIH1703 cells per well were seeded in 96 well plate and incubated at 37° C. for 5 hrs. A series of three-fold dilution of compounds from 10 mM stock concentration were added to the cells by using digital Dispenser D300-Tecan, keeping highest concentration 10 μM and normalizing with DMSO at the highest dispensed volume). Cells incubated with DMSO was used as a vehicle control. After compound treatment plates were incubated at 37° C. for 4 days and cell viability was measured by measuring ATP content from the cell lysate using ATPlite Luminescence assay system (PerkinElmer Cat. no #6016941). Percentage of viable cells, relative to DMSO vehicle control and maximum inhibition, was calculated and plotted in Graphpad Prism ([Inhibitor] vs. normalized response−Variable slope) to determine cell proliferation IC50 values on day 4.

Sequence of bromo domain of SMARCA4 protein (P51532 whole entry, looked up, the tested form may be a part): as the sequence (P51532 whole entry) above
Sequence of bromo domain of SMARCA4 protein (P40337 whole entry, looked up, the tested form may be a part): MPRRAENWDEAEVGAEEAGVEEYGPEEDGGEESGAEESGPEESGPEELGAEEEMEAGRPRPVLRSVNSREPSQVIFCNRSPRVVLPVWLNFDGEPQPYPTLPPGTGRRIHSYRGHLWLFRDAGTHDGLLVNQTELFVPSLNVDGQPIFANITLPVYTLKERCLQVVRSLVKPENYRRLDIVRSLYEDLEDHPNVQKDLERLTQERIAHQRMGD
Sequence of bromo domain of SMARCA4 protein (Q15370 whole entry partner, looked up, the tested form may be a part): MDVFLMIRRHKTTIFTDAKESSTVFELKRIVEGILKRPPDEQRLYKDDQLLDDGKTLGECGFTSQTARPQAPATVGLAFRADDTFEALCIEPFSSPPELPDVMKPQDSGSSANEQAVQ
Sequence of bromo domain of SMARCA4 protein (Q15369 whole entry partner, looked up, the tested form may be a part): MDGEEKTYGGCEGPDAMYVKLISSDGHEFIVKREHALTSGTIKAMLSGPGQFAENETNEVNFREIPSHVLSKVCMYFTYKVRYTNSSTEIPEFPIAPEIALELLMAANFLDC

SMILES	IC50 [1] [nM]	DC50 ([2]; H520 cells, overnight) [nM]	DC50 ([3]; H520 cells, overnight) [nM]	DC50 ([4]; H1693 cells, overnight) [nM]	Dmax [4] [%]	IC50 [5] [nM]	Dmax ([2]; NCI-H520, overnight, read-out: Dmax % (SM2_H520) maximum SMARCA2 degradation within the concentrations tested) [%]	Dmax ([3]; NCI-H520, overnight, read-out: Dmax % (SM4_H520) maximum SMARCA4 degradation within the concentrations tested) [%]	Dmax % (SM2_H520) maximum SMARCA2 degradation within the concentrations tested ([2]; H520 cells, overnight)	Dmax % (SM4_H520) maximum SMARCA4 degradation within the concentrations tested ([3]; H520 cells, overnight)	Dmax % (SM2_H1693) maximum SMARCA2 degradation within the concentrations tested ([4]; H1693 cells, overnight)
Cc1ncsc1-c1ccc([C@H](C)NC(=O)[C@@H]2C[C@@H](O)CN2C(=O)[C@@H](NC(=O)CN2CCN3c4cc(-c5ccccc5O)nnc4NCC3C2)C(C)(C)C)cc1 (single isomer, unassigned) [Example 1b]	< 100	100 to 1000	100 to 1000	< 100	> 75	100 to 1000	–	–	–	–	–
Cc1scnc1-c1ccc(CNC(=O)[C@@H]2C[C@@H](O)CN2C(=O)[C@@H](NC(=O)CN2CCN3c4cc(-c5ccccc5O)nnc4NCC3C2)C(C)(C)C)cc1 (single isomer, unassigned) [Example 2a]	100 to 1000	100 to 1000	1000 to 10000	100 to 1000	> 75	100 to 1000	> 75	50 to 75	–	–	–
Cc1scnc1-c1ccc(CNC(=O)[C@@H]2C[C@@H](O)CN2C(=O)[C@@H](NC(=O)CN2CCN3c4cc(-c5ccccc5O)nnc4NCC3C2)C(C)(C)C)cc1 (single isomer, unassigned) [Example 2b]	< 100	1000 to 10000	≥ 10000	1000 to 10000	–	1000 to 10000	–	–	A (A = Dmax > 75%)	C (C = Dmax <= 50%)	A (A = Dmax > 75%)
